Results taken from patent US8232284B2, “Heteroaryloxy quinazoline derivative” (MSD K. K., priority 2007, dated 2012).
Where a name gives a salt, the structure may show the parent alone.

These molecules were tested against T1, recombinant human liver GK (Homo sapiens, UniProt P35557) (assay: Glucokinase-activating effect (Thio-NADH coupled assay with G6PDH, 2.5 mM glucose)). Conditions: OD level of DMSO control set as 100%; final glucose concentration 2.5 mM; 30° C.
T1 construct: made in house; host or cells: E. coli
T1 sequence (P35557 1-466 isoform P35557-2): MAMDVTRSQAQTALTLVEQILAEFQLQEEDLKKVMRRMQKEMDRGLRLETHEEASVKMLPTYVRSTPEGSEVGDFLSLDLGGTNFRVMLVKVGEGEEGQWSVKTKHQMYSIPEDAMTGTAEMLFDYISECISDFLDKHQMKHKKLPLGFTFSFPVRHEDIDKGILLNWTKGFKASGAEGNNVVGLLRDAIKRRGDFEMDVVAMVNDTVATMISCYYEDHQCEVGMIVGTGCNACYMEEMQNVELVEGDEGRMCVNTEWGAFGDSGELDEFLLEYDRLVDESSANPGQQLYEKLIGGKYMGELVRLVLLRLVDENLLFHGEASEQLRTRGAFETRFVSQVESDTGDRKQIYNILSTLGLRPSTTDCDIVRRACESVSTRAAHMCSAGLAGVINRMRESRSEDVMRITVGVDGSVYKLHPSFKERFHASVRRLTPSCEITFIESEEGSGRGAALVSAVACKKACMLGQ
Assay type: biochemical
Description: The excellent glucokinase-activating effect of the compounds of the formula (I) may be determined by a method described in literature (for example, Diabetes, Vol. 45, pp. 1671-1677, 1996), or in accordance with it.
The glucokinase activity may be determined not by directly measuring glucose-6-phosphate but by measuring the level of Thio-NADH, which is produced when a reporter enzyme, glucose-6-phosphate dehydrogenase produces phosphogluconolactone from glucose-6-phosphate, and based on the level, the degree of glucokinase activation by the compound tested may be determined
In this assay, used was a recombinant human liver GK, which was expressed by E. coli as a FLAG fusion protein therein and was purified by ANTIFLAG M2 AFFINITY GEL (Sigma).
Using a flat-bottomed 96-well plate, the assay was carried out at 30° C. 69 μl of an assay buffer (25 mM Hepes Buffer/pH=7.2, 2 mM MgCl2, 1 mM ATP, 0.5 mM TNAD, 1 mM dithiothreitol) was put into the plate, and 1 μl of a DMSO solution of the compound or DMSO alone as a control was added thereto. Next, 20 μl of an enzyme mixture (FLAG-GK, 20 U/ml G6PDH) cooled in ice was added to it, and 10 μl of a substrate, 25 mM glucose was added to it, and the reaction was initiated (final glucose concentration=2.5 mM).
After the start of the reaction, the increase in the absorbance at 405 nm was measured for 12 minutes at intervals of 30 seconds, and the increase for the first 5 minutes was used for assessing the compound tested. FLAG-GK was added so that the absorbance increase after 5 minutes in the presence of 1% DMSO could be from 0.04 to 0.06.
The OD level of the DMSO control was set as 100%; and the OD level of the test compound at different concentrations was determined. From the OD level at each concentration, Emax (%) and EC50 (μM) were computed and used as the index of the GK-activating potency of the compound.
The comparative test was conducted to compare the compound of example 18, 31 and 32 in this invention with the compound (A) in the patent document 1. The test method in vitro was similar to pharmacological experiment 1 (glucokinase-activating effect).

First: CN(C)CCOc1ccc(Oc2ccc3ncnc(Nc4ccn(C)n4)c3c2)cn1 [Example 3, 6-({6-[2-(dimethylamino)ethoxy]pyridin-3-yl}oxy)-N-(1-methyl-1H-pyrazol-3-yl)quinazoline-4-amine]
Second: CN(C)CCOc1ncc(Oc2ccc3ncnc(Nc4ccn(C)n4)c3c2)cn1 [Example 7, 6-({2-[2-(dimethylamino)ethoxy]pyrimidin-5-yl}oxy)-N-(1-methyl-1H-pyrazol-3-yl)quinazoline-4-amine]
The Emax of the first is higher: 918% for the first, 695% for the second.

First: Cc1cnc(Nc2ncnc3ccc(Oc4ncc(OCCCO)cc4Cl)cc23)cn1 [Example 61, 3-{[5-chloro-6-({4-[(5-methylpyrazin-2-yl)amino]quinazolin-6-yl}oxy)pyridin-3-yl]oxy}propan-1-ol]
Second: CNCCOc1cnc(Oc2ccc3ncnc(Nc4ccn(C)n4)c3c2)c(C)c1 [Example 70, N-methyl-2-{[5-methyl-6-({4-[(1-methyl-1H-pyrazol-3-yl)amino]quinazolin-6-yl}oxy)pyridin-3-yl]oxy}ethanamine hydrochloride]
The Emax of the first is lower: 888% for the first, 979% for the second.

Work on CN(C)CCN(C)C(=O)c1ccnc(Oc2ccc3ncnc(Nc4ccn(C)n4)c3c2)c1Cl [Example 67, 3-chloro-N-[2-(dimethylamino)ethyl]-N-methyl-2-({4-[(1-methyl-1H-pyrazol-3-yl)amino]quinazolin-6-yl}oxy)isonicotinamide] yielded an Emax of 598%.

Same assay, conditions: final glucose concentration 2.5 mM; 30° C.; read-out: EC50

First: CN(C)CCOc1cnc(Oc2ccc3ncnc(Nc4ccn(C)n4)c3c2)c(Cl)c1 [Example 1, 6-({3-chloro-5-[2-(dimethylamino)ethoxy]pyridin-2-yl}oxy)-N-(1-methyl-1H-pyrazol-3-yl)quinazoline-4-amine]
Second: CN(C)CCOc1cnc(Cl)c(Oc2ccc3ncnc(Nc4ccn(C)n4)c3c2)c1 [Example 2, 6-({2-chloro-5-[2-(dimethylamino)ethoxy]pyridin-3-yl}oxy)-N-(1-methyl-1H-pyrazol-3-yl)quinazoline-4-amine]
The EC50 of the first is 5.2-fold lower: 80 nM for the first, 420 nM for the second.

First: CN(C)CCOc1ccc(Oc2ccc3ncnc(Nc4ccn(C)n4)c3c2)cn1 [Example 3, 6-({6-[2-(dimethylamino)ethoxy]pyridin-3-yl}oxy)-N-(1-methyl-1H-pyrazol-3-yl)quinazoline-4-amine]
Second: CN(C)CCCOc1ccc(Oc2ccc3ncnc(Nc4ccn(C)n4)c3c2)nc1 [Example 4, 6-({5-[3-(dimethylamino)propoxy]pyridin-2-yl}oxy)-N-(1-methyl-1H-pyrazol-3-yl)quinazoline-4-amine]
The EC50 of the first is 4.6-fold higher: 1740 nM for the first, 380 nM for the second. The second is the more potent here.

CC(C)NCCOc1ccc(Oc2ccc3ncnc(Nc4ccn(C)n4)c3c2)nc1 [Example 5, 6-({5-[2-(isopropylamino)ethoxy]pyridin-2-yl}oxy)-N-(1-methyl-1H-pyrazol-3-yl)quinazoline-4-amine] and CC(C)NCCOc1ccc(Oc2ccc3ncnc(Nc4cnn(C)n4)c3c2)nc1 [Example 76, N-(2-{[6-({4-[(2-methyl-2H-1,2,3-triazol-4-yl)amino]quinazolin-6-yl}oxy)pyridin-3-yl]oxy}ethyl)propan-2-amine hydrochloride] are within 1.5-fold of each other in EC50: 260 nM for the first, 230 nM for the second.

Going from CN(C)CCOc1ncc(Oc2ccc3ncnc(Nc4ccn(C)n4)c3c2)cn1 [Example 7, 6-({2-[2-(dimethylamino)ethoxy]pyrimidin-5-yl}oxy)-N-(1-methyl-1H-pyrazol-3-yl)quinazoline-4-amine] to CN(C)CCOc1cnc(Oc2ccc3ncnc(Nc4ccn(C)n4)c3c2)nc1 [Example 8, 6-({5-[2-(dimethylamino)ethoxy]pyrimidin-2-yl}oxy)-N-(1-methyl-1H-pyrazol-3-yl)quinazoline-4-amine], the EC50 falls from 6930 nM to 1320 nM (5.2-fold). The second is the more potent here.

Going from CCNCCCOc1cnc(Oc2ccc3ncnc(Nc4ccn(C)n4)c3c2)c(Cl)c1 [Example 20, 6-({3-chloro-5-[3-(ethylamino)propoxy]pyridin-2-yl}oxy)-N-(1-methyl-1H-pyrazol-3-yl)quinazoline-4-amine hydrochloride] to CNCCOc1cnc(Oc2ccc3ncnc(Nc4ccn(C)n4)c3c2)c(C)c1 [Example 70, N-methyl-2-{[5-methyl-6-({4-[(1-methyl-1H-pyrazol-3-yl)amino]quinazolin-6-yl}oxy)pyridin-3-yl]oxy}ethanamine hydrochloride], the EC50 falls from 40 nM to 26 nM (1.5-fold).

Going from Cn1ccc(Nc2ncnc3ccc(Oc4ncc(OC5CNC5)cc4Cl)cc23)n1 [Example 23, 6-{[5-(azetidin-3-yloxy)-3-chloropyridin-2-yl]oxy}-N-(1-methyl-1H-pyrazol-3-yl)quinazoline-4-amine hydrochloride] to CCN1CC(Oc2cnc(Oc3ccc4ncnc(Nc5ccn(C)n5)c4c3)c(F)c2)C1 [Example 25, 6-({5-[(1-ethylazetidin-3-yl)oxy]-3-fluoropyridin-2-yl}oxy)-N-(1-methyl-1H-pyrazol-3-yl)quinazoline-4-amine hydrochloride], the EC50 rises from 50 nM to 230 nM (4.6-fold).

Cc1cnc(Nc2ncnc3ccc(Oc4ncc(OCCN(C)C)cc4C)cc23)cn1 [Example 34, 6-({5-[2-(dimethylamino)ethoxy]-3-methylpyridin-2-yl}oxy)-N-(5-methylpyrazin-2-yl)quinazoline-4-amine hydrochloride] and Cc1cnc(Nc2ncnc3ccc(Oc4ncc(OCCN(C)C)cc4Cl)cc23)cn1 [Example 35, 6-({3-chloro-5-[2-(dimethylamino)ethoxy]pyridin-2-yl}oxy)-N-(5-methylpyrazin-2-yl)quinazoline-4-amine] are within 1.5-fold of each other in EC50: 70 nM for the first, 100 nM for the second.

Cc1cnc(Nc2ncnc3ccc(Oc4ccc(OCCNC(C)C)cn4)cc23)cn1 [Example 37, 6-({5-[2-(isopropylamino)ethoxy]pyridin-2-yl}oxy)-N-(5-methylpyrazin-2-yl)quinazoline-4-amine] and Cc1cnc(Nc2ncnc3ccc(Oc4ncc(OCCNC(C)C)cc4F)cc23)cn1 [Example 40, 6-({3-fluoro-5-[2-(isopropylamino)ethoxy]pyridin-2-yl}oxy)-N-(5-methylpyrazin-2-yl)quinazoline-4-amine hydrochloride] are within 1.5-fold of each other in EC50: 380 nM for the first, 350 nM for the second.

CN(C)CCOc1cnc(Oc2ccc3ncnc(Nc4cnccn4)c3c2)c(Cl)c1 [Example 44, 6-({3-chloro-5-[2-(dimethylamino)ethoxy]pyridin-2-yl}oxy)-N-pyrazin-2-ylquinazoline-4-amine] and Cc1cnc(Nc2ncnc3ccc(Oc4ncc(OCCO)cc4Cl)cc23)cn1 [Example 58, 2-{[5-chloro-6-({4-[(5-methylpyrazin-2-yl)amino]-1quinazolin-6-yl}oxy)pyridin-3-yl]oxy}ethanol] are within 1.5-fold of each other in EC50: 260 nM for the first, 200 nM for the second.

First: COc1ccc2nc(Nc3ncnc4ccc(Oc5ncc(OCCN(C)C)cc5Cl)cc34)sc2n1 [Example 46, 6-({3-chloro-5-[2-(dimethylamino)ethoxy]pyridin-2-yl}oxy)-N-(5-methoxy-[1,3]thiazolo[5,4-b]pyridin-2-yl)quinazoline-4-amine]
Second: Cc1nsc(Nc2ncnc3ccc(Oc4ccc(OCCN(C)C)cn4)cc23)n1 [Example 47, 6-({5-[2-(dimethylamino)ethoxy]pyridin-2-yl}oxy)-N-(3-methyl-1,2,4-thiadiazol-5-yl)quinazoline-4-amine]
The EC50 of the first is 2.6-fold lower: 110 nM for the first, 290 nM for the second. The first is the more potent here.

Compared with Cn1ccc(Nc2ncnc3ccc(Oc4ncc(OCCO)cc4F)cc23)n1 [Example 54, 2-{[5-fluoro-6-({-4-[(1-methyl-1H-pyrazol-3-yl)amino]quinazolin-6-yl}oxy)pyridin-3-yl]oxy}ethanol], Cc1cc(OCCO)cnc1Oc1ccc2ncnc(Nc3cnn(C)n3)c2c1 [Example 84, 2-{[5-methyl-6-({4-[(2-methyl-2H-1,2,3-triazol-4-yl)amino]quinazolin-6-yl}oxy)pyridin-3-yl]oxy}ethanol] is 9-fold lower in EC50: 360 nM for the first, 40 nM for the second. The second is the more potent here.

Compared with Cc1cnc(Nc2ncnc3ccc(Oc4ncc(OCCCO)cc4Cl)cc23)cn1 [Example 61, 3-{[5-chloro-6-({4-[(5-methylpyrazin-2-yl)amino]quinazolin-6-yl}oxy)pyridin-3-yl]oxy}propan-1-ol], Cc1cc(OCCNC(C)C)cnc1Oc1ccc2ncnc(Nc3cnn(C)n3)c2c1 [Example 81, N-(2-{[5-methyl-6-({4-[(2-methyl-2H-1,2,3-triazol-4-yl)amino]quinazolin-6-yl}oxy)pyridin-3-yl]oxy}ethyl)propan-2-amine hydrochloride] is 32-fold lower in EC50: 410 nM for the first, 13 nM for the second. The second is the more potent here.

First: CN(C)CCCN(C)S(=O)(=O)c1cnc(Oc2ccc3ncnc(Nc4ccn(C)n4)c3c2)c(Cl)c1 [Example 64, 5-chloro-N-[3-(dimethylamino)propyl]-N-methyl-6-({4-[(1-methyl-1H-pyrazol-3-yl)amino]quinazolin-6-yl}oxy)pyridine-3-sulfonamide]
Second: CN(C)CCN(C)C(=O)c1cnc(Oc2ccc3ncnc(Nc4ccn(C)n4)c3c2)c(Cl)c1 [Example 65, 5-chloro-N-[2-(dimethylamino)ethyl]-N-methyl-6-({4-[(1-methyl-1H-pyrazol-3-yl)amino]quinazolin-6-yl}oxy)nicotinamide]
The EC50 of the first is 2.8-fold higher: 1140 nM for the first, 410 nM for the second. The second is the more potent here.

CN(C)CCN(C)C(=O)c1ccnc(Oc2ccc3ncnc(Nc4ccn(C)n4)c3c2)c1Cl [Example 67, 3-chloro-N-[2-(dimethylamino)ethyl]-N-methyl-2-({4-[(1-methyl-1H-pyrazol-3-yl)amino]quinazolin-6-yl}oxy)isonicotinamide] gave an EC50 of 6090 nM.
